Biological target: T1, factor D (Homo sapiens, UniProt P00746)
T1 construct: made in house; host or cells: E. coli
Experiment: factor D inhibition assay of Biological Example 2
Assay type: biochemical

T1 sequence (P00746 26-253): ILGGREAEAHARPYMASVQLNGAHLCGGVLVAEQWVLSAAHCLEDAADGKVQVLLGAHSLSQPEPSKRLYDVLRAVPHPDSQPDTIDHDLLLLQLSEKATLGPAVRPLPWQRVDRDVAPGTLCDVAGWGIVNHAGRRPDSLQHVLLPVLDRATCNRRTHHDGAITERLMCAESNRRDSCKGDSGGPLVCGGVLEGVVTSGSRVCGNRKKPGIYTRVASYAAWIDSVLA

Row | Structure (SMILES) | IC50
1 | NCc1cccc(-c2cc(COc3ccccc3CC(=O)O)cc(C3CC3)c2)c1 [Example 103-B, 2-(2-((3′-(Aminomethyl)-5-cyclopropyl-[1,1′-biphenyl]-3-yl)methoxy)phenyl)acetic acid] | 10 nM
2 | CCc1cc(COc2ccccc2CC(=O)O)cc(-c2cccc(CN)c2)c1 [Example 104, 2-(2-((3′-(aminomethyl)-5-ethyl-[1,1′-biphenyl]-3-yl)methoxy)phenyl)acetic acid] | 6 nM
3 | NCc1cccc(-c2cc(CCC3CC3)cc(COc3ccccc3CC(=O)O)c2)c1 [Example 107-C, 2-(2-((3′-(Aminomethyl)-5-(2-cyclopropylethyl)-[1,1′-biphenyl]-3-yl)methoxy)phenyl)acetic acid] | 2 nM
4 | N[C@H](CO)c1cccc(-c2cc(Cl)cc(COc3ccccc3CC(=O)O)c2)c1 [Example 108-B, (S)-2-(2-((3′-(1-Amino-2-hydroxyethyl)-5-chloro-[1,1′-biphenyl]-3-yl)methoxy)phenyl)acetic acid] | 7 nM
5 | Cc1cc(COc2ccccc2CC(=O)O)cc(-c2cccc([C@H](N)CO)c2)c1 [Example 112-B, (S)-2-(2-((3′-(1-Amino-2-hydroxyethyl)-5-methyl-[1,1′-biphenyl]-3-yl)methoxy)phenyl)acetic acid] | 7 nM
6 | N[C@H](CO)c1cccc(-c2cc(COc3ccccc3CC(=O)O)cc(C(F)(F)F)c2)c1 [Example 114-B, (S)-2-(2-((3′-(1-Amino-2-hydroxyethyl)-5-(trifluoromethyl)-[1,1′-biphenyl]-3-yl)methoxy)phenyl)acetic acid] | 6 nM
7 | N[C@H](CO)c1cccc(-c2cc(F)cc(COc3ccccc3CC(=O)O)c2)c1 [Example 115-A] | 3 nM
8 | N[C@H](CO)c1cccc(-c2cc(COc3ccccc3CC(=O)O)cc(OCC(F)(F)F)c2)c1 [Example 115-C] | 5 nM
9 | NCc1cccc(-c2cc(COc3ccccc3CC(=O)O)cc(COc3ccccc3CC(=O)O)c2)c1 [Example 116-C] | 4 nM
10 | CC(O)c1cc(COc2ccccc2CC(=O)O)cc(-c2cccc([C@@H](C)N)c2)c1 (stereo partly shown) [Example 116-F] | 5 nM
11 | Cc1c(COc2ccccc2CC(=O)O)cccc1-c1cccc([C@H](N)CO)c1 [Example 116-L] | 10300 nM
12 | Cc1c(COc2ccccc2CC(=O)O)cccc1-c1cccc([C@@H](C)N)c1 [Example 116-N] | 52500 nM
13 | CCC[C@@H](N)c1cccc(-c2cc(CO)cc(COc3ccccc3CC(=O)O)c2)c1 [Example 117-B, (R)-2-(2-((3′-(1-Aminobutyl)-5-(hydroxymethyl)-[1,1′-biphenyl]-3-yl)methoxy)phenyl)acetic acid] | 83 nM
14 | COCc1cc(COc2ccccc2CC(=O)O)cc(-c2cccc([C@@H](C)N)c2F)c1 [Example 120-A] | 15 nM
15 | CC(O)c1cc(COc2ccccc2CC(=O)O)cc(-c2cccc([C@@H](C)N)c2F)c1 (stereo partly shown) [Example 120-F] | 8 nM
16 | C[C@@H](N)c1cccc(-c2cc(COc3ccccc3CC(=O)O)cc(C(C)(C)O)c2)c1F [Example 120-G] | 13 nM
17 | COCc1cc(COc2ccccc2CC(=O)O)cc(-c2cccc([C@H](C)N)c2F)c1 [Example 120-I] | 25 nM
18 | CC(O)c1cc(COc2ccccc2CC(=O)O)cc(-c2cccc([C@H](C)N)c2F)c1 (stereo partly shown) [Example 120-J] | 23 nM
19 | CC(C)OCc1cc(COc2ccccc2CC(=O)O)cc(-c2cccc([C@@H](C)N)c2)c1 [Example 120-P] | 7 nM
20 | CCOCc1cc(COc2ccccc2CC(=O)O)cc(-c2cccc([C@@H](C)N)c2)c1 [Example 120-R] | 50 nM

Further compounds by falling IC50, results first:

Row | IC50 | Structure (SMILES)
21 | 1230 nM | Cc1ccc(COc2ccccc2CC(=O)O)cc1-c1cccc([C@@H](C)N)c1 [Example 116-M]
22 | 280 nM | CC(O)c1cc(COc2ccccc2CC(=O)O)cc(-c2cccc([C@H](C)N)c2)c1 (stereo partly shown) [Example 120-L]
23 | 190 nM | COCc1cc(COc2ccccc2CC(=O)O)cc(-c2cccc([C@H](C)N)c2)c1 [Example 120-K]
24 | 108 nM | Cc1ccc(COc2ccccc2CC(=O)O)cc1-c1cccc([C@H](N)CO)c1 [Example 116-K]
25 | 93 nM | COC(C)c1cc(COc2ccccc2CC(=O)O)cc(-c2cccc([C@@H](C)N)c2F)c1 (stereo partly shown) [Example 120-D]
26 | 67 nM | CCC[C@@H](N)c1cccc(-c2cc(COC)cc(COc3ccccc3CC(=O)O)c2)c1 [Example 118, (R)-2-(2-((3′-(1-Aminobutyl)-5-(methoxymethyl)-[1,1′-biphenyl]-3-yl)methoxy)phenyl)acetic acid]
27 | 55 nM | C[C@@H](N)c1cccc(-c2cc(CO)cc(COc3ccccc3CC(=O)O)c2)c1F [Example 120-B]
28 | 30 nM | CCc1cc(COc2ccccc2CC(=O)O)cc(-c2cccc([C@H](N)CO)c2)c1 [Example 110-C, (S)-2-(2-((3′-(1-Amino-2-hydroxyethyl)-5-ethyl-[1,1′-biphenyl]-3-yl)methoxy)phenyl)acetic acid]
29 | 30 nM | N#Cc1cc(COc2ccccc2CC(=O)O)cc(-c2cccc(CN)c2)c1 [Example 113-B, 2-(2-((3′-(Aminomethyl)-5-cyano-[1,1′-biphenyl]-3-yl)methoxy)phenyl)acetic acid]
30 | 24 nM | CC(C)OCc1cc(COc2ccccc2CC(=O)O)cc(-c2cccc([C@@H](C)N)c2F)c1 [Example 120-O]
31 | 22 nM | N[C@H](CO)c1cccc(-c2cc(COc3ccccc3CC(=O)O)cc(C3CC3)c2)c1 [Example 109-B, (S)-2-(2-((3′-(1-Amino-2-hydroxyethyl)-5-cyclopropyl-[1,1′-biphenyl]-3-yl)methoxy)phenyl)acetic acid]
32 | 21 nM | C[C@@H](N)c1cccc(-c2cc(CO)cc(COc3ccccc3CC(=O)O)c2)c1 [Example 116-A]
33 | 21 nM | C[C@@H](N)c1cccc(-c2cc(COc3ccccc3CC(=O)O)cc(COC3CCOc4ccc(Cl)cc43)c2)c1F (stereo partly shown) [Example 120-S]
34 | 17 nM | COC(C)c1cc(COc2ccccc2CC(=O)O)cc(-c2cccc([C@H](N)CO)c2)c1 (stereo partly shown) [Example 120-E]
35 | 17 nM | CCOCc1cc(COc2ccccc2CC(=O)O)cc(-c2cccc([C@@H](C)N)c2F)c1 [Example 120-Q]
36 | 15 nM | NCc1cccc(-c2cc(CCO)cc(COc3ccccc3CC(=O)O)c2)c1 [Example 105-C, 2-(2-((3′-(Aminomethyl)-5-(2-hydroxyethyl)-[1,1′-biphenyl]-3-yl)methoxy)phenyl)acetic acid]
37 | 15 nM | C[C@@H](N)c1cccc(-c2cc(COCC(F)(F)F)cc(COc3ccccc3CC(=O)O)c2)c1 [Example 120-N]
38 | 11 nM | C[C@@H](N)c1cccc(-c2cc(COCC(F)(F)F)cc(COc3ccccc3CC(=O)O)c2)c1F [Example 120-M]
39 | 10 nM | C[C@@H](N)c1cccc(-c2cc(COc3ccccc3CC(=O)O)cc(C(C)(C)O)c2)c1 [Example 120-H]
40 | 9 nM | NCc1cccc(-c2cc(Cl)cc(COc3ccccc3CC(=O)O)c2)c1 [Example 102-B, 2-(2-((3′-(Aminomethyl)-5-chloro-[1,1′-biphenyl]-3-yl)methoxy)phenyl)acetic acid]
41 | 8 nM | CCOc1cc(COc2ccccc2CC(=O)O)cc(-c2cccc([C@H](N)CO)c2)c1 [Example 115-B]
42 | 8 nM | C[C@@H](N)c1cccc(-c2cc(COc3ccccc3CC(=O)O)cc(COC3CCOc4ccc(Cl)cc43)c2)c1 (stereo partly shown) [Example 120-T]
43 | 3 nM | COCc1cc(COc2ccccc2CC(=O)O)cc(-c2cccc([C@@H](C)N)c2)c1 [Example 120-C]
